In the NIST ThermoML archive (doi:10.1021/acs.jced.9b00420):
± gives the expanded uncertainty stated by the source.

Conditions: Liquid; for mass density: Vibrating tube method; for speed of sound: Light diffraction method

CCCCCCCCC(=O)OCC [ethyl nonanoate]
Conditions	mass density [kg/m3]	speed of sound [m/s]
293.15 K, 100 kPa	865.02 ± 0.39	–
295.24 K, 10000 kPa	–	1348.5 ± 46
295.29 K, 7000 kPa	–	1342.4 ± 46
295.35 K, 5000 kPa	–	1336.6 ± 46
295.41 K, 3000 kPa	–	1327.1 ± 45
295.53 K, 1000 kPa	–	1318.3 ± 44
295.67 K, 100 kPa	–	1303.3 ± 43
298.15 K, 100 kPa	860.89 ± 0.39	–
303.15 K, 100 kPa	856.75 ± 0.38	–
303.18 K, 10000 kPa	–	1318 ± 44
303.22 K, 3000 kPa	–	1296.2 ± 43
303.26 K, 1000 kPa	–	1278.4 ± 42
303.3 K, 7000 kPa	–	1307 ± 43
303.41 K, 5000 kPa	–	1298 ± 43
303.48 K, 100 kPa	–	1273.9 ± 42
313.08 K, 10000 kPa	–	1283.3 ± 42
313.14 K, 1000 kPa	–	1242.7 ± 40
313.15 K, 100 kPa	848.43 ± 0.38	–
313.45 K, 7000 kPa	–	1266 ± 42
313.56 K, 3000 kPa	–	1252.4 ± 40
313.77 K, 100 kPa	–	1224.9 ± 39
314.03 K, 5000 kPa	–	1262.6 ± 40
322.95 K, 7000 kPa	–	1231.4 ± 39
323.15 K, 100 kPa	840.09 ± 0.38	–
323.39 K, 10000 kPa	–	1246.8 ± 40
323.64 K, 5000 kPa	–	1215.5 ± 39
323.68 K, 100 kPa	–	1183.3 ± 37
324.78 K, 3000 kPa	–	1204.3 ± 39
324.85 K, 1000 kPa	–	1195.5 ± 37
332.89 K, 10000 kPa	–	1208.8 ± 39
332.93 K, 3000 kPa	–	1175.1 ± 36
333.15 K, 100 kPa	831.73 ± 0.38	–
333.21 K, 1000 kPa	–	1163.1 ± 36
334.21 K, 5000 kPa	–	1185 ± 37
334.21 K, 7000 kPa	–	1191.7 ± 37
334.94 K, 100 kPa	–	1142.9 ± 36
342.88 K, 3000 kPa	–	1137.2 ± 35
343.1 K, 10000 kPa	–	1170.1 ± 36
343.12 K, 5000 kPa	–	1153.6 ± 36
343.15 K, 100 kPa	823.33 ± 0.38	–
343.24 K, 1000 kPa	–	1123.8 ± 34
343.31 K, 7000 kPa	–	1157.3 ± 36
343.51 K, 100 kPa	–	1107.8 ± 33
351.94 K, 3000 kPa	–	1098.9 ± 33
352.22 K, 1000 kPa	–	1085.5 ± 33
352.39 K, 10000 kPa	–	1135 ± 34
353.15 K, 100 kPa	814.88 ± 0.38	–
353.27 K, 5000 kPa	–	1106.1 ± 33
353.32 K, 7000 kPa	–	1114.4 ± 34
354.18 K, 100 kPa	–	1065.4 ± 31
361.97 K, 5000 kPa	–	1078.7 ± 32
362.59 K, 7000 kPa	–	1085.6 ± 33
362.97 K, 3000 kPa	–	1063.9 ± 31
363 K, 10000 kPa	–	1106.9 ± 33
363.3 K, 1000 kPa	–	1046 ± 30
364.18 K, 100 kPa	–	1028.8 ± 30
371.77 K, 5000 kPa	–	1046.8 ± 30
371.91 K, 1000 kPa	–	1012.3 ± 29
371.99 K, 100 kPa	–	1003 ± 29
372.73 K, 3000 kPa	–	1024.3 ± 30
373.24 K, 10000 kPa	–	1068.4 ± 32
373.26 K, 7000 kPa	–	1045.8 ± 30
381.51 K, 5000 kPa	–	1011.2 ± 29
381.89 K, 100 kPa	–	965.2 ± 27
381.96 K, 3000 kPa	–	995.2 ± 28
383.17 K, 10000 kPa	–	1037.3 ± 30
383.69 K, 7000 kPa	–	1011.5 ± 29
384.3 K, 1000 kPa	–	971.3 ± 27
391.7 K, 5000 kPa	–	974.2 ± 27
391.74 K, 7000 kPa	–	985.8 ± 28
391.74 K, 10000 kPa	–	1009.8 ± 29
391.75 K, 1000 kPa	–	939.5 ± 26
391.81 K, 3000 kPa	–	961.1 ± 27
391.89 K, 100 kPa	–	932.1 ± 26
403.31 K, 1000 kPa	–	902.3 ± 24
403.36 K, 7000 kPa	–	943.9 ± 26
403.46 K, 3000 kPa	–	921.8 ± 25
403.47 K, 10000 kPa	–	968.6 ± 27
403.82 K, 5000 kPa	–	929.8 ± 26
405.01 K, 100 kPa	–	884 ± 24
412.73 K, 3000 kPa	–	893.7 ± 24
412.73 K, 10000 kPa	–	936.6 ± 26
412.81 K, 7000 kPa	–	917.8 ± 25
412.98 K, 1000 kPa	–	870.1 ± 24
413.05 K, 5000 kPa	–	904.2 ± 24
413.84 K, 100 kPa	–	861.2 ± 23
421.5 K, 5000 kPa	–	875.4 ± 24
421.83 K, 1000 kPa	–	842.1 ± 22
421.98 K, 10000 kPa	–	916 ± 25
422 K, 7000 kPa	–	891 ± 24
422.02 K, 3000 kPa	–	862.5 ± 23
422.07 K, 100 kPa	–	827.6 ± 22
431.53 K, 1000 kPa	–	808.9 ± 21
431.84 K, 5000 kPa	–	850.9 ± 22
431.86 K, 10000 kPa	–	888.7 ± 24
431.88 K, 7000 kPa	–	861.7 ± 23
432.05 K, 3000 kPa	–	827.6 ± 22
432.93 K, 100 kPa	–	797.1 ± 21
442.94 K, 1000 kPa	–	779.7 ± 20
443 K, 7000 kPa	–	835.6 ± 22
443.02 K, 10000 kPa	–	860.3 ± 23
443.11 K, 3000 kPa	–	796.4 ± 21
443.15 K, 5000 kPa	–	814.1 ± 21
443.7 K, 100 kPa	–	767.3 ± 19
452.5 K, 1000 kPa	–	750.6 ± 19
452.64 K, 7000 kPa	–	805 ± 21
452.65 K, 5000 kPa	–	786.9 ± 20
452.68 K, 10000 kPa	–	835.1 ± 22
452.83 K, 100 kPa	–	739.6 ± 19
452.88 K, 3000 kPa	–	771.1 ± 19
462.31 K, 3000 kPa	–	743.5 ± 19
462.34 K, 7000 kPa	–	783.1 ± 20
462.43 K, 10000 kPa	–	804.8 ± 21
462.49 K, 5000 kPa	–	763 ± 19
462.68 K, 1000 kPa	–	720.1 ± 18
464.19 K, 100 kPa	–	703.5 ± 18
471.8 K, 3000 kPa	–	718.5 ± 18
471.86 K, 5000 kPa	–	737.7 ± 18
471.86 K, 7000 kPa	–	756.6 ± 19
471.87 K, 1000 kPa	–	693.4 ± 17
471.88 K, 100 kPa	–	683 ± 16
471.95 K, 10000 kPa	–	783.4 ± 20
482.55 K, 1000 kPa	–	665.4 ± 16
482.56 K, 3000 kPa	–	691.9 ± 17
482.58 K, 7000 kPa	–	727.2 ± 18
482.62 K, 5000 kPa	–	709.2 ± 18
482.62 K, 10000 kPa	–	759.9 ± 19
482.75 K, 100 kPa	–	652.6 ± 16
492.48 K, 10000 kPa	–	735.7 ± 18
492.57 K, 3000 kPa	–	660.7 ± 16
492.66 K, 7000 kPa	–	704.9 ± 18
492.67 K, 5000 kPa	–	681.7 ± 16
493 K, 1000 kPa	–	637.4 ± 15
502.65 K, 3000 kPa	–	635.1 ± 15
502.91 K, 7000 kPa	–	681.8 ± 16
502.95 K, 1000 kPa	–	607.9 ± 15
503.08 K, 10000 kPa	–	709.9 ± 18
503.42 K, 5000 kPa	–	655.5 ± 16
512.78 K, 7000 kPa	–	655 ± 16
512.8 K, 10000 kPa	–	689.4 ± 17
512.83 K, 3000 kPa	–	609.6 ± 15
512.9 K, 5000 kPa	–	633.5 ± 15
513.2 K, 1000 kPa	–	581.3 ± 14
522.13 K, 1000 kPa	–	555.5 ± 13
522.19 K, 7000 kPa	–	631.9 ± 15
522.31 K, 3000 kPa	–	583.9 ± 14
522.36 K, 5000 kPa	–	609.3 ± 15
522.38 K, 10000 kPa	–	662 ± 16
533.35 K, 1000 kPa	–	519.4 ± 12
533.43 K, 7000 kPa	–	605.6 ± 15
533.52 K, 10000 kPa	–	637 ± 15
533.6 K, 3000 kPa	–	552.1 ± 13
533.69 K, 5000 kPa	–	581.4 ± 14
542.72 K, 3000 kPa	–	528.8 ± 12
542.76 K, 10000 kPa	–	619.6 ± 15
542.79 K, 7000 kPa	–	583 ± 14
542.91 K, 5000 kPa	–	553.5 ± 13
543.62 K, 1000 kPa	–	491 ± 11
552.52 K, 3000 kPa	–	500.5 ± 12
552.61 K, 7000 kPa	–	558.1 ± 13
552.71 K, 1000 kPa	–	458.7 ± 10
552.72 K, 5000 kPa	–	527.6 ± 12
552.76 K, 10000 kPa	–	596.5 ± 14
562.08 K, 1000 kPa	–	428.6 ± 9.6
562.32 K, 5000 kPa	–	499.9 ± 12
562.4 K, 7000 kPa	–	532 ± 12
562.45 K, 10000 kPa	–	574.7 ± 13
562.48 K, 3000 kPa	–	468.4 ± 10
571.78 K, 3000 kPa	–	435.9 ± 9.7
571.96 K, 1000 kPa	–	387.2 ± 8.7
572.13 K, 7000 kPa	–	504.6 ± 12
572.32 K, 10000 kPa	–	549 ± 13
572.37 K, 5000 kPa	–	472 ± 10
582.01 K, 5000 kPa	–	439.9 ± 9.8
582.26 K, 7000 kPa	–	473.6 ± 10
582.35 K, 10000 kPa	–	525.5 ± 12
582.39 K, 3000 kPa	–	393.3 ± 8.8
591.81 K, 3000 kPa	–	351.2 ± 7.6
592.38 K, 5000 kPa	–	398.5 ± 8.9
592.79 K, 7000 kPa	–	438.3 ± 9.8
593.15 K, 10000 kPa	–	495.3 ± 11
